{
  "source": "patent US20240408068A1",
  "about": "“Helicase Primase Inhibitors For Treating Cancer In A Combination Therapy With Oncolytic Viruses” (priority 2018, published 2024)",
  "key": {"HSV-1 [1]": {"test_system": "HSV-1", "experiment": "In vitro activity, HSV-1 infected Vero cells", "type": "cell-based", "conditions": "Human alphaherpesvirus 1, Vero", "method": "(§1) The in vitro activity of the new compounds was measured as described in WO2017/174640 and in WO2019/068817."}, "HSV-1 ACV resistant": {"test_system": "HSV-1 ACV resistant", "experiment": "In vitro activity, HSV-1 ACV resistant", "type": "cell-based", "conditions": "Human alphaherpesvirus 1", "method": "as §1"}, "HSV-1 [2]": {"test_system": "HSV-1", "experiment": "Viral DNA (HSV-1 copies) within treated tumor samples, first oHSV experiment", "type": "in vivo, Balbc/j mice", "conditions": "for Total HSV-1 [copy/g tumor] mean: day 19", "method": "At the end of efficacy monitoring period (on day 19 post-tumor cell inoculation, around ˜3-4 h after the last treatment with test compound), all surviving mice were anesthetized using isoflurane gas anesthesia (4% induction and 2% maintain) prior to blood sampling on heparin-coated tubes by retro-orbital puncture, for plasma collection. In addition, tumors were collected, snap-frozen, and stored at −80° C. until further analysis.\nThe tumors were collected as described above, snap frozen in liquid nitrogen and DNA of ˜25 mg tumor samples was extracted with a QIAamp DNA Mini Kit (Cat. No. 51326) on a QIAcube machine. 10 μL of the 200 μL HSV DNA containing elution volumue was quantified with an Argene HSV R-gene kit (Ref.: 69-004B) and normalized to 1 gram tumor sample (see below)."}, "HSV-1 [3]": {"test_system": "HSV-1", "experiment": "Survival of mice in first oHSV experiment", "type": "in vivo, Balbc/j mice", "conditions": "high dose HSV group subsequently treated with compound", "method": "Pharmacological animal groups (8 animal per group, 64 animals in total) were organized as such: • 1. Control virus-untreated group: test compound vehicle (200 μL, 5% DMSO; 0.5% hydroxypropylmethylcellulose (HPMC) in PBS) oral gavage (20 gauge needle standard suspension applicator), once a day, for 10 days and starting 72 h after virus injection for the other groups. • 2. Control virus vehicle-treated group: 50 μL of virus vehicle, intratumoral injection when tumors reached an average volume of app. 40 mm^3, with test compound vehicle, oral gavage, once a day, for 10 days and starting 72 h after vehicle virus injection. • 3. HSV-1 (quantity 1; 5×10^6 pfu)-treated group: 50 μL of HSV-1 (5×10^6), intratumoral injection when tumors reached an average volume of app. […] HSV-1 (quantity 2; 1×10^8 pfu)-treated group: 100 μL of HSV-1 (1×10^8) intratumoral injection when tumors reached an average volume of app. […] HSV-1 (quantity 1; 5×10^6 pfu)-test compound-treated group: 50 μL of HSV-1 (5×10^6), intratumoral injection when tumors reached an average volume of app. […] HSV-1 (quantity 2; 1×10^8 pfu)-test compound-treated group: 100 μL of HSV-1 (1×10^8), intratumoral injection when tumors reached an average volume of app. […]\nAs previously mentioned, tumor volume and body weight of the animals were measured and recorded three times per week. […]"}, "[4]": {"conditions": "in vivo; cited from earlier work"}, "[5]": {"conditions": "in vivo; cited from earlier work", "remark": "listed apart in the source"}},
  "data": [
    {"smiles": "Cc1nc(N(C)C(=O)Cc2ccc(-c3cc(F)ccc3F)cc2)sc1[S@@](C)(=N)=O", "note": "[Example 7(−), (−)-(S)-2-(2′,5′-Difluoro-[1,1′-biphenyl]-4-yl)-N-methyl-N-(4-methyl-5-(S-methylsulfonimidoyl)thiazol-2-yl)acetamide]", "values": [
      {"measurement": "IC50", "setting": "HSV-1 [1]", "value": "10 to 50", "unit": "nM"},
      {"measurement": "IC50", "setting": "HSV-1 ACV resistant", "value": "10 to 50", "unit": "nM"},
      {"measurement": "Total HSV-1 [copy/g tumor] mean", "setting": "HSV-1 [2]; Group 5: HSV-1 5 × 10^6 pfu + 10 mg/kg 72 pi", "value": 154493, "unit": "copy/g tumor"},
      {"measurement": "Total HSV-1 [copy/g tumor] mean", "setting": "HSV-1 [2]; Group 6: HSV-1 5 × 10^6 pfu + 10 mg/kg 72 pi + αPD1 + αCTLA-4", "value": 51301, "unit": "copy/g tumor"},
      {"measurement": "Total HSV-1 [copy/g tumor] mean", "setting": "HSV-1 [2]; Group 7: HSV-1 1 × 10^8 pfu + 10 mg/kg 72 hpi", "value": 74312, "unit": "copy/g tumor"},
      {"measurement": "Total HSV-1 [copy/g tumor] mean", "setting": "HSV-1 [2]; Group 8: HSV 5 × 10^6 pfu + 10 mg/kg 2 h pi", "value": 10600, "unit": "copy/g tumor"},
      {"measurement": "reduction in viral DNA load", "setting": "HSV-1 [2]; treatment 2 hours post infection compared to 72 hours delayed treatment", "value": "highest reduction in viral DNA load"},
      {"measurement": "rescue of mice from virus-induced death", "setting": "HSV-1 [3]", "value": "the mice can be rescued"},
      {"measurement": "ED50 in animal models", "setting": "[4]", "value": "lowest ED50 in animal models reported so far"},
      {"measurement": "brain exposure", "setting": "[5]", "value": "highest brain exposure reported to date"}
    ]}
  ]
}
